# Measured values reported in ChEMBL document CHEMBL4422615, “Novel non-xanthine antagonist of the A2B adenosine receptor: From HTS hit to lead structure” (Eur J Med Chem, 2019).
# Activity calls are given as the source filed them. The calls are words filed in the database; no cut-off is given here.
# How the values were obtained:
# [1] = Half life in rat at 0.3 mg/kg, iv administered as infusion for 15 mins by HPLC-MS/MS analysis; assay type: ADME, organism-based; settings: in vivo
# Adenosine receptor A2b [2] = target: T1, Adenosine receptor A2b (Homo sapiens, UniProt P29275); assay: Antagonist activity at recombinant human A2B adenosine receptor expressed in CHO cells after 3 to 4 hrs by luciferase reporter gene assay; assay type: cell-based
# T1 sequence (P29275 whole entry): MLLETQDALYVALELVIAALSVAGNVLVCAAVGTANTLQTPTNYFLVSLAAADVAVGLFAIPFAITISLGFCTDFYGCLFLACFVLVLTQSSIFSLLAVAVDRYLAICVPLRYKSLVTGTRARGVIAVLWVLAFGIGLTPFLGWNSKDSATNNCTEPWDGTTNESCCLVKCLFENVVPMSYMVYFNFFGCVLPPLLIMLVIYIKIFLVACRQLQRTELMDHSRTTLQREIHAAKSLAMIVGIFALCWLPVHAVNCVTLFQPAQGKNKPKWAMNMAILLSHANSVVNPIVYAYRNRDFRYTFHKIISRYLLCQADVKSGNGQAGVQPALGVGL
# Mus musculus [3] = assay: Antifibrotic activity in silica-induced C57BL/6J mouse pulmonary fibrosis model assessed as reduction in TGF-beta level in lung tissue homogenate at 100 to 500 mg/kg, bid administered via gavage treated from day 1 until day 7 after silica application by ELISA; assay type: functional, organism-based
# [4] = Blood clearance in mouse by measuring intrinsic clearance in mouse liver microsomes by MS/MS analysis; assay type: ADME
# [5] = Volume of distribution at steady state in mouse at 0.3 mg/kg, iv administered as bolus dose by HPLC-MS/MS analysis; assay type: ADME, organism-based; settings: in vivo, read-out: Vdss
# Homo sapiens = species on record: Homo sapiens; assay: (§1) Anti-inflammatory activity in human LL29 cells assessed as reduction in NECA-induced IL6 level after 24 hrs by ELISA; assay type: functional, cell-based
# [6] = as §1; assay type: functional, cell-based
# [7] = Fraction unbound in mouse plasma by equilibrium dialysis method; assay type: ADME, cell-free
# [8] = Dose normalized Cmax in mouse at 1 mg/kg, iv administered as bolus dose by HPLC-MS/MS analysis; assay type: ADME, organism-based; settings: in vivo
# Mus musculus [9] = assay: Antifibrotic activity in FITC-induced C57BL/6J mouse pulmonary fibrosis model assessed as reduction in IL-6 level in BALF homogenate at 100 to 500 mg/kg, bid administered via gavage pretreated for 45 mins before FITC addition until 72 hrs after FITC application by ELISA; assay type: functional, organism-based
# Cytochrome P450 2D6 = Cytochrome P450 2D6 (Homo sapiens, UniProt P10635); assay: Inhibition of CYP2D6 in human liver microsomes using dextromethorphan as substrate after 15 mins in presence of NADPH by LC-MS/MS analysis; assay type: ADME
# Sequence of Cytochrome P450 2D6 (P10635 whole entry, the tested form may be a part): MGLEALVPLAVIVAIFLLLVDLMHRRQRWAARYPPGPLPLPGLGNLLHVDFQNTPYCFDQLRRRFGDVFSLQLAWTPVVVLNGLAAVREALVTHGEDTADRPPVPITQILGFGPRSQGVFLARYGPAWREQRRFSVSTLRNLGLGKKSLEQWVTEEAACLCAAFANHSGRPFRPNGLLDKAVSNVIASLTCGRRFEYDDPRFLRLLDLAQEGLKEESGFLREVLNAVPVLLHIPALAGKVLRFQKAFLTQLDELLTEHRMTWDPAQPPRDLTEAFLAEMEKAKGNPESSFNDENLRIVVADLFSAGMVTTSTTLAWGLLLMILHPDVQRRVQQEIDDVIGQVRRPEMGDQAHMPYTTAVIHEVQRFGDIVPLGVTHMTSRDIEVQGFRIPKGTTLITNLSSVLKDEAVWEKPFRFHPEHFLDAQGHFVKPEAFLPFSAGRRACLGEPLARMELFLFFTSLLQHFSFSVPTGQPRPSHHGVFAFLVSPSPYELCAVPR
# [10] = Volume of distribution at steady state in rat at 0.3 mg/kg, iv administered as infusion for 15 mins by HPLC-MS/MS analysis; assay type: ADME, organism-based; settings: in vivo, read-out: Vdss
# [11] = Dose normalized AUC in dog at 1 mg/kg, po for 15 mins by HPLC-MS/MS analysis; assay type: ADME, organism-based, Canis lupus familiaris; settings: in vivo, 0.25 h
# Mus musculus [12] = assay: Antifibrotic activity in FITC-induced C57BL/6J mouse pulmonary fibrosis model assessed as reduction in total number of cells in BALF at 100 to 500 mg/kg, bid administered via gavage pretreated for 45 mins before FITC addition until 72 hrs after FITC application; assay type: functional, organism-based
# Adenosine receptor A2b [13] = target: T2, Adenosine receptor A2b (Mus musculus, UniProt Q60614); assay: Antagonist activity at recombinant mouse A2B adenosine receptor expressed in CHO cells after 3 to 4 hrs by luciferase reporter gene assay; assay type: cell-based
# T2 sequence (Q60614 whole entry): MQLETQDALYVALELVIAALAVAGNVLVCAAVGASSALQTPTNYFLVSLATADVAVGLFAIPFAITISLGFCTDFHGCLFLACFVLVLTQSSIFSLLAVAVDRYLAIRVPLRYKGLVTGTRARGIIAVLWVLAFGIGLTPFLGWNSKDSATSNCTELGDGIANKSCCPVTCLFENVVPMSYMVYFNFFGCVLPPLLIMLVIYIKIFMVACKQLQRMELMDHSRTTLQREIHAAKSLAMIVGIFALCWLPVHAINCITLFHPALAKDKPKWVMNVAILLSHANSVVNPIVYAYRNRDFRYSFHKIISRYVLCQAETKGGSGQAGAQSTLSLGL
# Adenosine receptor A3 = target: T3, Adenosine receptor A3 (Homo sapiens, UniProt P0DMS8); assay: Antagonist activity at recombinant human A3 adenosine receptor expressed in CHO cells after 3 to 4 hrs by luciferase reporter gene assay; assay type: cell-based
# T3 sequence (P0DMS8 whole entry): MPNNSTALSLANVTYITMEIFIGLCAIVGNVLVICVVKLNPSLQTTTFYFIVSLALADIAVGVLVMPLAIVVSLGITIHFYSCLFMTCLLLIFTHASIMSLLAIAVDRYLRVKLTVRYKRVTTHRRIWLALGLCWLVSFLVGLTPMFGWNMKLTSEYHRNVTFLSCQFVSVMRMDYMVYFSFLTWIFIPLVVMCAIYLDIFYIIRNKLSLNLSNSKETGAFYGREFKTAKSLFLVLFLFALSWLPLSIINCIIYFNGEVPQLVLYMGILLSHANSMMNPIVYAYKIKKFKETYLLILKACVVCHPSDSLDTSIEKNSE
# [14] = Dose normalized AUC in mouse at 1 mg/kg, iv administered as bolus dose by HPLC-MS/MS analysis; assay type: ADME, organism-based; settings: in vivo
# [15] = Volume of distribution at steady state in dog at 0.3 mg/kg, iv administered as infusion for 15 mins by HPLC-MS/MS analysis; assay type: ADME, organism-based, Canis lupus familiaris; settings: in vivo, read-out: Vdss
# Mus musculus [16] = assay: Antifibrotic activity in silica-induced C57BL/6J mouse pulmonary fibrosis model assessed as reduction in lung weight at 100 to 500 mg/kg, bid administered via gavage treated from day 1 until day 7 after silica application; assay type: functional, organism-based
# Cytochrome P450 3A4 = Cytochrome P450 3A4 (Homo sapiens, UniProt P08684); assay: Time dependent inhibition of human liver microsomes CYP3A4 using midazolam as substrate in presence of NADPH by LC-MS/MS analysis; assay type: ADME
# Sequence of Cytochrome P450 3A4 (P08684 whole entry): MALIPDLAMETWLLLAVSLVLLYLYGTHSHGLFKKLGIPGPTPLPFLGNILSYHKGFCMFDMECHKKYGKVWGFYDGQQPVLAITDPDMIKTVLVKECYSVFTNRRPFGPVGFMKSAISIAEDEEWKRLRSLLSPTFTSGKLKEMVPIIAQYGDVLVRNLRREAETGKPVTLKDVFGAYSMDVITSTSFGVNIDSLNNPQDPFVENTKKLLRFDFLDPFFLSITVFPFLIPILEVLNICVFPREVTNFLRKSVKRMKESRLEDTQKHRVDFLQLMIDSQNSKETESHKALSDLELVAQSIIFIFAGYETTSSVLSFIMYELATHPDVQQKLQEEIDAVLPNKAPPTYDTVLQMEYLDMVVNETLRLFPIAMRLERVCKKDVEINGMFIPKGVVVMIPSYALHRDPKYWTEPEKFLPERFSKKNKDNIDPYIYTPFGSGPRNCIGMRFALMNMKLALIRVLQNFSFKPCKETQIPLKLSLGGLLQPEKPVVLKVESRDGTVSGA
# [17] = Fraction unbound in rat plasma by equilibrium dialysis method; assay type: ADME, cell-free
# [18] = MRT in dog at 0.3 mg/kg, iv administered as infusion for 15 mins by HPLC-MS/MS analysis; assay type: ADME, organism-based, Canis lupus familiaris; settings: in vivo
# [19] = Dose normalized AUC in mouse at 0.3 mg/kg, iv administered as bolus dose by HPLC-MS/MS analysis; assay type: ADME, organism-based; settings: in vivo
# [20] = MRT in rat at 0.3 mg/kg, iv administered as infusion for 15 mins by HPLC-MS/MS analysis; assay type: ADME, organism-based; settings: in vivo
# [21] = Fraction unbound in dog plasma by equilibrium dialysis method; assay type: ADME, cell-free, Canis lupus familiaris
# [22] = Clearance in mouse plasma at 0.3 mg/kg, iv administered as bolus dose by HPLC-MS/MS analysis; assay type: ADME, organism-based
# Adenosine receptor A2a = Adenosine receptor A2a (Mus musculus, UniProt Q60613); assay: Antagonist activity at recombinant mouse A2A adenosine receptor expressed in CHO cells after 3 to 4 hrs by luciferase reporter gene assay; assay type: cell-based
# Sequence of Adenosine receptor A2a (Q60613 whole entry): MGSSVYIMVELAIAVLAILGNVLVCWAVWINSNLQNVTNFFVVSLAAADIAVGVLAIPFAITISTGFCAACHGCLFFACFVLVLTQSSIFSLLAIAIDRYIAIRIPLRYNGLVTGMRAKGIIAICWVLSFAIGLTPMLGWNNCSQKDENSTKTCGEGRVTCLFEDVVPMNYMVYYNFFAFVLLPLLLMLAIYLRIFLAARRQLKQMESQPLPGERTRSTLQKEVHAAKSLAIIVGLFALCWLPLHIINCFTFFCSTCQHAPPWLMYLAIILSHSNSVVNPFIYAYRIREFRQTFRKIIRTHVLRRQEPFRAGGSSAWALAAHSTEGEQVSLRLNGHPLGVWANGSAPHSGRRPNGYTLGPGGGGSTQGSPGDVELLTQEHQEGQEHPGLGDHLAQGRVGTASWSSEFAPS
# [23] = Blood clearance in rat by measuring Intrinsic clearance in rat hepatocytes by MS/MS analysis; assay type: ADME, cell-based
# [24] = Half life in mouse at 0.3 mg/kg, iv administered as bolus dose by HPLC-MS/MS analysis; assay type: ADME, organism-based; settings: in vivo
compound,measurement,setting,value
CCn1c(=O)c2c(C)c(C(=O)N3CCC(O)CC3)sc2n(CCC(F)(F)F)c1=O,half-life,[1],1.4 h
same,IC50,Adenosine receptor A2b [2],66 nM
same,Activity,Mus musculus [3],Active
same,CLhep predicted,[4],< 8.33 mL/min/kg
same,Vd,[5],0.4 L/kg
same,Activity,Homo sapiens,Dose-dependent effect
same,IC50,[6],185 nM
same,fraction unbound,[7],0.3
same,Cmax/dose,[8],1.2 kg/L
same,Activity,Mus musculus [9],inactive
same,IC50,Cytochrome P450 2D6,> 20000 nM
same,Vd,[10],1.5 L/kg
same,AUC/dose,[11],2 kg·h/L
same,Activity,Mus musculus [12],Active
same,IC50,Adenosine receptor A2b [13],400 nM
same,IC50,Adenosine receptor A3,> 6700 nM
same,AUC/dose,[14],1 kg·h/L
same,Vd,[15],2 L/kg
same,Activity,Mus musculus [16],Active
same,TDI,Cytochrome P450 3A4,Not Active
same,fraction unbound,[17],0.7
same,MRT,[18],4.9 h
same,AUC/dose,[19],1.6 kg·h/L
same,MRT,[20],1.3 h
same,fraction unbound,[21],0.54
same,clearance,[22],10.2 mL/min/kg
same,IC50,Adenosine receptor A2a,470 nM
same,CLhep predicted,[23],23.3 mL/min/kg
same,half-life,[24],1.2 h
